Measurements as given in article PMC7377239, “Cardiovascular Effects of Polychlorinated Biphenyls and Their Major Metabolites” (Environmental Health Perspectives, 2020).
Where two headings read alike, the source gives them in different places.

How the values were obtained:
HUVECs = assay: Tube formation (tubulogenesis) assay in HUVECs, 18 h; assay type: cell-based, human; settings: Homo sapiens, HUVEC, 18 h, HUVECs; for activity at 0.1 µM: 0.10 µM; for minimal effective concentration: top concentration 100.00 µM
In short: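 HUVECs (passage 1–5) seeded on reduced-growth-factor basement membrane and exposed to compounds overnight at 37°C, 5% CO2, in 2× maintenance medium with 12.5 ng/mL VEGF; 0.5% DMSO vehicle. Calcein AM-stained tube networks imaged and analysed; vehicle-normalized readouts fit to four-parameter logistic, POD set at one SD of vehicle means.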

[1] = system: iCell endothelial cells (human iPSC-derived ECs); assay: High-content imaging cytotoxicity in iCell endothelial cells, 24 h; assay type: cell-based; settings: Homo sapiens, Endothelial cell, iPSC-EC, 24 hr; for viability at 0.1 µM / activity at 0.1 µM: 0.10 µM; for minimal effective concentration: top concentration 100.00 µM
In short: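 Readouts were vehicle-normalised and fitted to a four-parameter logistic model. POD was set at one SD beyond 0.5% DMSO control means, and 100 µM was assigned when no response was seen. Cells were monolayers of iCell endothelial cells imaged after 24 h compound exposure using nuclear, mitochondrial and calcein dyes.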

[2] = 0.00 µM = 100.00, read-out: huvec.mtl.18hr
[3] = 0.00 µM = 100.00, read-out: huvec.tlps.18hr
[4] = 0.00 µM = 100.00, read-out: huvec.tta.18hr
[5] = 0.00 µM = 100.00, read-out: huvec.ttl.18hr
[6] = 0.00 µM control = 100.00, read-out: endo.cyto.24hr
[7] = 0.00 µM control = 100.00, read-out: endo.mito.24hr
[8] = 0.00 µM control = 100.00, read-out: endo.mitoint.24hr
[9] = 0.00 µM control = 100.00, read-out: endo.nma.24hr
[10] = 0.00 µM control = 100.00, read-out: endo.tc.24hrs
[11] = read-out: endo.mitoint.24hr POD

## Oc1cc(Cl)c(-c2cc(Cl)ccc2Cl)cc1Cl [4-OH PCB52]
HUVECs; [2]
  activity at 0.01 µM: 112%
  activity at 0.1 µM: 98.5%
  activity at 1 µM: 94%
  activity at 10 µM: 91.1%
  activity at 100 µM: 69.6%
HUVECs; [3]
  activity at 0.01 µM: 103%
  activity at 0.1 µM: 96.7%
  activity at 1 µM: 92.4%
  activity at 10 µM: 77.1%
  activity at 100 µM: 35.6%
HUVECs; [4]
  activity at 0.01 µM: 129%
  activity at 0.1 µM: 107%
  activity at 1 µM: 123%
  activity at 10 µM: 98.5%
  activity at 100 µM: 168%
HUVECs; [5]
  activity at 0.01 µM: 112%
  activity at 0.1 µM: 98.2%
  activity at 1 µM: 110%
  activity at 10 µM: 87.2%
  activity at 100 µM: 163%
HUVECs; read-out: huvec.mtl.18hr POD
  minimal effective concentration: 8.34 µM
HUVECs; read-out: huvec.tlps.18hr POD
  minimal effective concentration: 4.13 µM
HUVECs; read-out: huvec.tta.18hr POD
  minimal effective concentration: 51.8 µM
HUVECs; read-out: huvec.ttl.18hr POD
  minimal effective concentration: 62.1 µM
[1]; [6]
  viability at 0.01 µM: 96.8%
  viability at 0.1 µM: 94.9%
  viability at 1 µM: 101%
  viability at 10 µM: 98%
  viability at 100 µM: 42.3%
[1]; [7]
  activity at 0.01 µM: 96.3%
  activity at 0.1 µM: 94.5%
  activity at 1 µM: 101%
  activity at 10 µM: 98%
  activity at 100 µM: 39.7%
[1]; [8]
  activity at 0.01 µM: 90.5%
  activity at 0.1 µM: 89.8%
  activity at 1 µM: 88.2%
  activity at 10 µM: 98.3%
  activity at 100 µM: 51.4%
[1]; [9]
  activity at 0.01 µM: 104%
  activity at 0.1 µM: 104%
  activity at 1 µM: 103%
  activity at 10 µM: 103%
  activity at 100 µM: 89.3%
[1]; [10]
  viability at 0.01 µM: 96.8%
  viability at 0.1 µM: 94.9%
  viability at 1 µM: 101%
  viability at 10 µM: 98%
  viability at 100 µM: 49.3%
[1]; read-out: endo.cyto.24hr POD
  minimal effective concentration: 13.2 µM
[1]; read-out: endo.mito.24hr POD
  minimal effective concentration: 13.2 µM
[1]; [11]
  minimal effective concentration: 43.8 µM
[1]; read-out: endo.nma.24hr POD
  minimal effective concentration: 63.5 µM
[1]; read-out: endo.tc.24hrs POD
  minimal effective concentration: 16.6 µM

## Oc1cc(Cl)cc(-c2cccc(Cl)c2)c1 [5-OH PCB 11]
HUVECs; [2]
  activity at 0.01 µM: 117%
  activity at 0.1 µM: 121%
  activity at 1 µM: 103%
  activity at 10 µM: 81.1%
  activity at 100 µM: 63%
HUVECs; [3]
  activity at 0.01 µM: 148%
  activity at 0.1 µM: 186%
  activity at 1 µM: 111%
  activity at 10 µM: 102%
  activity at 100 µM: 38.8%
HUVECs; [4]
  activity at 0.01 µM: 116%
  activity at 0.1 µM: 123%
  activity at 1 µM: 113%
  activity at 10 µM: 76.5%
  activity at 100 µM: 111%
HUVECs; [5]
  activity at 0.01 µM: 106%
  activity at 0.1 µM: 106%
  activity at 1 µM: 104%
  activity at 10 µM: 67.6%
  activity at 100 µM: 94.6%
HUVECs; read-out: huvec.mtl.18hr POD
  minimal effective concentration: 6.98 µM
HUVECs; read-out: huvec.tlps.18hr POD
  minimal effective concentration: 100 µM
HUVECs; read-out: huvec.tta.18hr POD
  minimal effective concentration: 100 µM
HUVECs; read-out: huvec.ttl.18hr POD
  minimal effective concentration: 32.7 µM
[1]; [6]
  viability at 0.01 µM: 99.9%
  viability at 0.1 µM: 100%
  viability at 1 µM: 102%
  viability at 10 µM: 102%
  viability at 100 µM: 19.9%
[1]; [7]
  activity at 0.01 µM: 100%
  activity at 0.1 µM: 100%
  activity at 1 µM: 103%
  activity at 10 µM: 103%
  activity at 100 µM: 30.3%
[1]; [8]
  activity at 0.01 µM: 96.8%
  activity at 0.1 µM: 93.5%
  activity at 1 µM: 92.3%
  activity at 10 µM: 107%
  activity at 100 µM: 62.5%
[1]; [9]
  activity at 0.01 µM: 101%
  activity at 0.1 µM: 100%
  activity at 1 µM: 99.2%
  activity at 10 µM: 98.6%
  activity at 100 µM: 79.6%
[1]; [10]
  viability at 0.01 µM: 99.9%
  viability at 0.1 µM: 100%
  viability at 1 µM: 102%
  viability at 10 µM: 102%
  viability at 100 µM: 47.2%
[1]; read-out: endo.cyto.24hr POD
  minimal effective concentration: 42.3 µM
[1]; read-out: endo.mito.24hr POD
  minimal effective concentration: 42.3 µM
[1]; [11]
  minimal effective concentration: 55 µM
[1]; read-out: endo.nma.24hr POD
  minimal effective concentration: 14.2 µM
[1]; read-out: endo.tc.24hrs POD
  minimal effective concentration: 43.2 µM
